{
  "source": "patent US9849170B2",
  "about": "“Microneedle coating composition and microneedle device” (priority 2013, dated 2017)",
  "assay": "Blending effect of lysine hydrochloride on stability (L9 orthogonal table)",
  "type": "physicochemical",
  "details": "2.5% or 5.0% lysine hydrochloride blended; 50° C., 2 weeks; least-squares analysis, FIG. 4",
  "method": "A Japanese encephalitis vaccine antigen application solution comprising 70% by mass of a mixture of arginine and an acid, where the blending ratio of each component (unit: % by mass) and the molar ratio of arginine and the acid are shown in Table 7, was applied onto microneedles, and the blending effect of the lysine hydrochloride was evaluated using an L9 orthogonal table. In Table 7, the numerical values in parentheses for each component denote the blending ratios (unit: % by mass) after removal of the volatile component.\nA PBS solution of a Japanese encephalitis vaccine antigen was used as a bulk drug, this bulk drug was concentrated by ultrafiltration, and a predetermined amount of an additive was added to the concentrate, followed by mixing to obtain an application solution for microneedles. […] After drying, the microneedles were sealed in MoistCatch (trade name, Kyodo Printing Co., Ltd.) together with PharmaKeep (trade name, Mitsubishi Gas Chemical Company, Inc.), and the stability under each temperature condition was evaluated. […] For the specific activity level of each sample preserved at 50° C. for 2 weeks, the degree of influence by blending of lysine hydrochloride on the specific activity was analyzed by a least-squares method. […]",
  "data": [
    {"compound": "Cl.NCCCC[C@H](N)C(=O)O", "note": "[lysine hydrochloride]", "values": [
      {"measurement": "degree of influence on the specific activity", "value": "high"}
    ]}
  ]
}
